{"source": "patent US20070259428A1", "about": "“Use of Cloud Point System in Biotransformation” (Shanghai Health Creation Center for Biopharmaceutical R&D …, priority 2003, published 2007)", "key": {"[1]": {"conditions": "footnote a: mg/L; cited from earlier work"}, "[2]": {"test": "TLC analysis of distribution of substrate and product in CPS", "type": "physicochemical", "conditions": "FIG. 4", "method": "TLC analysis was performed to determine the distribution of substrate and products in CPS, using Silica gel 60 F254 (Merck) high-performance thin layer chromatography plates which is developed in Chloroform:ether (1:3) followed by soaking in phosphornolybdic acid solution and drying by heat. Substrate and products were separated, with their Rf values of cholesterol, a-AD and ADD being 0.62, 0.47, and 0.42, respectively.\nBy TLC analysis, the partition of substrate and product in CPS is viewed in FIG. 4. […] Partition of cells between the two phases is determined with hemocytometry. Its partition coefficient between the coacervate phase and the dilute phase is roughly 10, indicating the surface of Mycobacterium sp. is rather hydrophobic. This is in compliance with the report that Mycobacterium is a hydrophobic microbe."}, "[3]": {"conditions": "cited from earlier work"}, "[4]": {"conditions": "cloud point; cited from earlier work"}, "[5]": {"test_system": "Mycobacterium sp. NRRL B 3683", "test": "Screening of nonionic surfactant: biocompatibility or potential toxicity to the microorganism, by final ADD concentration in surfactant-amended transformation medium", "type": "cell-based", "conditions": "high concentration of surfactant (2.0 g/100 ml), 28° C., 7 days", "method": "Microbial strain, Mycobacterium sp. NRRL B 3683, is preserved in Shanghai Health Creation Center for Biopharmaceuticals R&D. It is able to remove the side chain of cholesterol, giving out ADD and 4-AD as final products, at a ratio of ca. 10:1.\nTransformation medium (100 ml): (NH4)SO4 1.0 g, Na2HPO4 0.45 g, KH2PO4 0.34 g, MgSO4.7H2O 0.2 g, cholesterol 0.5 g, nonionic surfactant 2.0 g\nThe seed culture was grown aerobically at 28° C. at 220 r/min for 3 days with 20 ml of medium in a 250 ml Erlenmeyer flask. The seed culture was then transferred by 10% into 22 ml of transformation medium in a 250 ml Erlenmeyer flask, which was then shaken at 28° C. at 220 r/min for 7 days. A portion of the well-mixed transformation culture broth was withdrawn for analysis.\n1 ml of sample was withdrawn from culture broth and extracted with 4 ml of methanol for 2 hrs, followed by centrifugation. 0.8 ml of supernatant was taken for HPLC analysis. Hypesil C18 column using methanol:water (4:1) as mobile phase, flow rate of 0.7 ml/min, and detection wavelength at 254 nm were applied.\nFor selecting appropriate medium of microbial transformation, biocompatibility or potential toxicity of surfactant to microorganism is critical."}}, "data": [{"molecule": "Tween 60", "values": [{"measurement": "CMC", "setting": "[1]", "value": "27^a mg/L"}]}, {"molecule": "C[C@]12C=CC(=O)C=C1CC[C@@H]1[C@@H]2CC[C@]2(C)C(=O)CC[C@@H]12", "note": "[ADD]", "values": [{"measurement": "partition in CPS (dilute phase vs coacervate phase)", "setting": "[2]", "value": "based in the coacervate phase"}]}, {"molecule": "CC(C)CCC[C@@H](C)[C@H]1CC[C@H]2[C@@H]3CC=C4C[C@@H](O)CC[C@]4(C)[C@H]3CC[C@]12C", "note": "[cholesterol]", "values": [{"measurement": "solubility in water", "setting": "[3]", "value": "below 1 μM"}]}, {"molecule": "Tween 40", "values": [{"measurement": "CMC", "setting": "[1]", "value": "29^a mg/L"}]}, {"molecule": "Triton X-100", "values": [{"measurement": "CP", "setting": "[4]", "value": 64, "unit": "°C"}, {"measurement": "biocompatibility with the microorganism", "setting": "[5]", "value": "incompatible with the microorganism"}]}]}
